Results: US10213506B2, “Targeting immunotherapy for amyloidosis” (UNIVERSITY OF TENNESSEE RESEARCH FOUNDATION, priority 2014, dated 2019)

Experiments:
[1] = tested on: AA amyloid; test: In vivo pre-targeting of 125I-11-1F4 to systemic AA amyloid; settings: AA mice, ~400 μg unlabeled peptide, 24 h post injection of 11-1F4
Method: (§1) Systemic visceral AA amyloidosis was induced in H2-L^d-huIL-6 Tg Balb/c transgenic mice that constitutively express the human interleukin-6 transgene, by iv injection of 10 μg of purified, splenic AA amyloid (amyloid enhancing factor; AEF) in 100 μL of sterile phosphate-buffered saline (PBS). Peptide p66 pre-targeting of ^125I-11-1F4 was evaluated in mice at 3-4 wk post AEF injection when amyloid load was modest.
(§2) Three cohorts of 3 mice, each received ˜400 μg of unlabeled peptide p66, and a second group of 3 cohorts were given peptide p5+14 as a control. Twenty-four hours after the peptide injection all mice were administered ˜150 μCi (˜20 μg) of ^125I-11-1F4 IV in the lateral tail vein. One group of p66 mice (n=3) and one group of p5+14 control mice (n=3) were euthanized at 24, 48 and 72 h post injection of 11-1F4 mAb and the organs harvested at necropsy for fixation, followed by microautoradiographic and immunohistochemical analyses.
For autoradiography, 6-μm-thick sections were cut from formalin-fixed, paraffin-embedded blocks, containing tissues from mice that had received ^125I-p66. The sections were placed on Plus microscope slides (Fisher Scientific), dipped in NTB-2 emulsion (Eastman Kodak), stored in the dark, and developed after a 4 day exposure. Each section was counterstained with hematoxylin and eosin. […]

[2] = tested on: synthetic and naturally-occurring amyloid samples; test: 125I-peptide pull-down assay; format: binding
Method: To evaluate the binding of p66 and p5+14 to synthetic and naturally-occurring amyloid, peptides p66 or p5+14 were radiolabeled with iodine-125 (I-125, ^125I) using oxidation with chloramine T (1 mg/ml in water freshly made. Free 1-125 was removed from the reaction mixture by size exclusion chromatography using a Sephadex G-25 solid phase and a 0.1% (w/v) gelatin in PBS mobile phase. Fractions of ˜250 μl were collected and the radioactivity in each measured using a gamma counter (Packard Cobra II auto-gamma counter). Peptide fractions with peak radioactivity were pooled and used for the “pull-down” assays.
For the pull down assay, ^125I-labeled peptide binding to murine: (m) AA and wild type (WT) liver homogenates (25 μl); rVλ6Wil (AL), Aβ(1-40) and islet amyloid polypeptide (IAPP) synthetic fibrils (25 μg), and; transthyretin-associated (ATTR), ALκ4-Cab and ALλ1-Ship human amyloid extracts (50 μg). The ^125I-peptides were prepared in PBST (0.15 M NaCl) or PBST with 1 M NaCl. Ten μl (˜5 ng, ˜100,000 counts per min [cpm]) of the ^125I-peptide solution was added to each test sample in a 200 μl volume. The reaction mixtures were rotated for 1 h at RT, then centrifuged twice at 16,000× g for 10 min. After each step the supernatants were removed and collected in test tubes. The pellets, obtained following the second spin were resuspended in PBST. The radioactivity in both the supernatant and pellet samples were measured using a Packard Cobra II auto-gamma counter. The bound peptide, expressed as % total was calculated according to: Bound peptide(% total)=(Pellet cpm)/(Pellet cpm+Supernatant cpm)

[3] = tested on: liver macrophages; test: Liver macrophage staining (Iba-1) after in vivo pre-targeting; settings: AA mice pre-injected with the peptide, 72 h post injection of 11-1F4 mAb
Method: as §1, §2
The presence of macrophages was detected by staining with mAb Iba-1 (1:8000 diln) followed by addition of biotinylated rabbit anti-mouse secondary reagent (Vector Rabbit Elite kit). The slides were developed, as described above. All tissue sections were examined using a Leica DM500 light microscope fitted with cross-polarizing filters (for Congo red). Digital microscopic images were acquired using a cooled CCD camera (SPOT; Diagnostic Instruments).

[4] = target: T1, human ATTR amyloid (Homo sapiens, UniProt P02766); test: Pre-targeting immunohistochemistry on ATTR-laden tissue sections; format: binding; settings: biotinylated peptide without mAb; compared with Congo red
T1 construct: human ATTR-laden formalin-fixed paraffin embedded tissue sections; from tissue
Method: The pre-targeting efficacy of peptide p5+14 in conjunction with mAb clones 4, 5, 12, or 13 was further evaluated using human ATTR-laden formalin-fixed paraffin embedded tissue sections. More particularly, six micrometer-thick sections, cut from formalin-fixed, paraffin embedded human transthyretin (TTR) amyloid-laden tissue, were subjected to antigen retrieval by incubation with CitraPlus (BioGenex, San Ramon, Calif.) for 30 min at 90° C. Peptide p5+14 was added to the tissue at ˜3 μg/mL (30× molar excess over mAb) and incubated overnight at 4° C. Unbound reagent was removed by washing in PBST for 30 min. Tissues (with or without p5+14) were immunostained with a 3 μg/mL solution of biotinylated anti-peptide mAb (clones 4, 5, 12, or 13). Slides were developed by addition of streptavidin-HRP (Vectastain Elite ABC kit, Vector Labs) followed by 3,3′-diaminobezidene (Vector Labs).
By way of positive control, a biotinylated-p5+14 peptide (without mAb) was used to directly stain TTR amyloid in this tissue (red arrows, below), as described above.
To confirm the presence and distribution of amyloid in the tissue a consecutive slide was stained with Congo red. Briefly, tissues were incubated in Congo red solution (0.8% w/v Congo red, 0.2% KOH w/v in 80% ethanol) for 1 h at RT. Sections were then washed in water and counterstained by suspending in Mayer's hematoxylin for 2 min. […]

[5] = tested on: mAb clones; test: Capture of biotinylated negative control peptides by adsorbed mAbs; format: binding, murine; settings: 100 ng/well
Method: More particularly, 96-well ELISA microplates were coated overnight with the indicated mAbs (500 ng/well), the wells were blocked with PBS/BSA solution before addition of biotinylated p5+14 peptide (100 ng/well). Biotinylated peptides, p5R and p31G (aka p5G) were used as a negative control. Following a wash step, detection of captured peptide was achieved by addition of europium-conjugated streptavidin as described above.

[6] = In vivo binding of 125I-p66 in healthy WT mice; settings: 125I-labelled peptide iv
Method: (§3) Imaging was performed using WT or AA amyloid mice (n=3) that were injected with ˜5 μg of ^125I-p66, 125 μCi in the lateral tail vein. After the appropriate uptake time (data for 4 and 72 h pi shown), mice were euthanized by isoflurane inhalation overdose. SPECT images were acquired using an Inveon trimodality imaging platform (Siemens Preclinical Solution, Knoxville, Tenn.) running Inveon Acquisition Workplace software (ver. 2.0). Low energy (^125I; 25-45 keV) gamma photons were acquired at each of 60, 16-sec projections with 90 mm of bed travel. A 1 mm-diameter, 5-pinhole (Mouse Whole Body) collimator was used at 30 mm from the center of the field of view. Data were reconstructed post hoc onto an 88×88×312 matrix with isotropic 0.50 mm voxels using a 3D ordered subset expectation maximization (OSEM) algorithm (8 iterations; 6 subsets).
(§4) Samples of liver, spleen, pancreas, kidneys, small and large intestines, stomach and heart were harvested post mortem from every mouse undergoing imaging with ^125I-p66. A sample of each was placed into a tared, plastic vial, weighed and the ^125I radioactivity measured using an automated Wizard 3 gamma counter (1480 Wallac Gamma Counter, Perkin Elmer). The biodistribution data were expressed as % injected dose/g tissue (% ID/g). In addition, samples of each tissue were fixed in 10% buffered-formalin for 24 h and embedded in paraffin for autoradiography. […]

[7] = target: BSA-blocked wells (Bos taurus, UniProt P02769); test: p66 and 11-1F4 on BSA-blocked wells without fibrils; format: binding; settings: no fibrils
Sequence of BSA-blocked wells (P02769 25-607): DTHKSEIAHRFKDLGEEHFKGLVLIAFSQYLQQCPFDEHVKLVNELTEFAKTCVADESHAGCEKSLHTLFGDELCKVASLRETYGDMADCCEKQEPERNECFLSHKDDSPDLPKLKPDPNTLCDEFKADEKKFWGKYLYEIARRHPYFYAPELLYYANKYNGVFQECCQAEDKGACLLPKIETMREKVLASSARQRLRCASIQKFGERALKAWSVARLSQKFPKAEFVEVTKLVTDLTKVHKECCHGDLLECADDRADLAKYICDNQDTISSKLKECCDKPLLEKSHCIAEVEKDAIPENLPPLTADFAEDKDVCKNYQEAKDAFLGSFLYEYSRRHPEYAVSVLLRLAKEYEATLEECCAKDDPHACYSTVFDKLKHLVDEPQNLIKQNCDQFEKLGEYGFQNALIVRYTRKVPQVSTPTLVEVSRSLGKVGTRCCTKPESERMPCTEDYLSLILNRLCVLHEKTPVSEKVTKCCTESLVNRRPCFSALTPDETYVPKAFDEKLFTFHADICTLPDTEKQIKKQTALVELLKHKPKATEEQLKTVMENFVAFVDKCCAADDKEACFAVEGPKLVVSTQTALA

[8] = tested on: AA amyloid deposits; test: In vivo binding of 125I-p66 in mice with systemic AA amyloidosis
Method: as §1, with “p66” for “p66 pre-targeting of ^125I-11-1F4”, “4-6” for “3-4”, “significant.” for “modest.”
as §3
CT data were acquired using an x-ray voltage biased to 80 kVp with a […] anode current, with 4×4 binning. A 225 msec exposure was used, and 360, 1-degree projections were collected. The data were reconstructed using an implementation of the Feldkamp filtered back-projection algorithm onto a 512×512×1296 matrix with isotropic 0.106 mm voxels. […]
as §4, with “ID/g).” for “ID/g). In addition, samples of each tissue were fixed in 10% buffered-formalin for 24 h and embedded in paraffin for autoradiography.”

Row | Binding of 125I-peptide to amyloid samples (pull-down) ([2]; 0.15 M NaCl) | Binding of 125I-peptide to amyloid samples (pull-down) ([2]; 1.0 M NaCl) | Direct staining of ATTR amyloid by biotinylated peptide [4] | Peptide binding to BSA-blocked wells in the absence of fibrils [7] | Substance | Peptide associated with AA amyloid in tissues (immunohistochemistry with clone 12-3) [1] | Liver macrophage infiltration (Iba-1 staining) [3] | Capture of biotinylated peptide by adsorbed mAb clones [5] | Binding to healthy tissues in vivo (micro-autoradiography) [6] | Binding to amyloid deposits in vivo (micro-autoradiography vs Congo red) ([8]; 125I-labelled peptide iv, mice with systemic AA amyloidosis) | Reactivity with amyloid in vivo, notably liver, spleen, pancreas and intestines (SPECT/CT imaging and tissue biodistribution) ([8]; 125I-labelled peptide, AA mice) | Time post injection at which liver amyloid could be visualized by SPECT imaging ([8]; 125I-labelled peptide, AA mice)
1 | bound equally well | bound equally well | co-localizes with amyloid deposits |  | p5+14: SEQ ID NO: 17: KAQKAQAKQAKQAQKAQKAQAKQAKQAQKAQKAQAKQAKQ (KAQKAQAKQAKQAQKAQKAQAKQAKQAQKAQKAQAKQAKQ; Peptide p5+14) | p5+14-coated AA amyloid in all tissues evaluated | induced macrophage infiltration |  |  |  |  | 
2 |  |  |  |  | p5G: SEQ ID NO: 3: GAQGAQAGQAGQAQGAQGAQAGQAGQ (GAQGAQAGQAGQAQGAQGAQAGQAGQ; Peptide p5G) |  |  | not captured |  |  |  | 
3 |  |  |  |  | p5R: SEQ ID NO: 2: RAQRAQARQARQAQRAQRAQARQARQ (RAQRAQARQARQAQRAQRAQARQARQ; Peptide p5R) |  |  | not captured |  |  |  | 
4 | bound equally well | bound equally well |  | no peptide bound | p66: SEQ ID NO: 18: p5+14 fused via linker SVTVVT to 11-1F4 12-mer epitope KHYAAFPENLLI (KAQKAQAKQAKQAQKAQKAQAKQAKQAQKAQKAQAKQAKQSVTVVTKHYAAFPENLLI; Fusion protein between p66 and antibody epitope sequence 11-1F4) | associated specifically with AA amyloid | induced macrophage infiltration into the liver and clustering of macrophages around amyloid deposits to a greater degree |  | did not bind to any tissue | specifically bound the amyloid deposits | confirmed | at least 72 h
